According to publication PMC5218480 (PLoS ONE, 2017):

System: MV-4-11 cells
Assay: Gene expression microarray analysis (Affymetrix PrimeView) and GSEA
Assay type: cell-based, human
Design: RFU PODN (11730768_x_at) / Fold change /veh PODN (11730768_x_at) / RFU LINC00158 (11744669_a_at) / Fold change /veh LINC00158 (11744669_a_at) / RFU DUSP10 (11751237_a_at) / Fold change /veh DUSP10 (11751237_a_at) / RFU ID3 (11757404_x_at) / Fold change /veh ID3 (11757404_x_at) / RFU PLEKHG5 (11737974_s_at) / Fold change /veh PLEKHG5 (11737974_s_at) / RFU LRRC4B (11730491_at) / Fold change /veh LRRC4B (11730491_at) / RFU GIMAP4 (11747438_a_at) / Fold change /veh GIMAP4 (11747438_a_at) / RFU KRT8 (11758183_x_at) / Fold change /veh KRT8 (11758183_x_at) / RFU CNN1 (11734310_a_at) / Fold change /veh CNN1 (11734310_a_at) / RFU VPS37D (11726825_at) / Fold change /veh VPS37D (11726825_at) / RFU C10orf10 (11716522_x_at) / Fold change /veh C10orf10 (11716522_x_at) / RFU KIR2DL2 /// KIR2DL4 /// KIR2DL5A /// KIR2DL5B /// KIR2DS1 /// KIR2DS2 /// KIR2DS3 /// KIR2DS4 /// KIR3DL3 /// KIR3DL3 /// KIR3DS1 (11738374_at) / Fold change /veh KIR2DL2 /// KIR2DL4 /// KIR2DL5A /// KIR2DL5B /// KIR2DS1 /// KIR2DS2 /// KIR2DS3 /// KIR2DS4 /// KIR3DL3 /// KIR3DL3 /// KIR3DS1 (11738374_at) / RFU C1QL1 (11718748_at) / Fold change /veh C1QL1 (11718748_at) / RFU TMPRSS4 (11747572_a_at) / Fold change /veh TMPRSS4 (11747572_a_at) / RFU HAMP (11756126_x_at) / Fold change /veh HAMP (11756126_x_at) / RFU RNFT2 (11725882_a_at) / Fold change /veh RNFT2 (11725882_a_at) / RFU NR4A2 (11747474_a_at) / Fold change /veh NR4A2 (11747474_a_at) / RFU ABCC12 (11746883_a_at) / Fold change /veh ABCC12 (11746883_a_at) / RFU TMEM136 (11760407_x_at) / Fold change /veh TMEM136 (11760407_x_at) / RFU CLDN22 /// WWC2 (11732394_at) / Fold change /veh CLDN22 /// WWC2 (11732394_at) / RFU HLA-DPB1 (11760878_x_at) / Fold change /veh HLA-DPB1 (11760878_x_at) / RFU SPINT1 (11716480_a_at) / Fold change /veh SPINT1 (11716480_a_at) / RFU GAP43 (11754022_s_at) / Fold change /veh GAP43 (11754022_s_at) / RFU A4GNT (11735810_at) / Fold change /veh A4GNT (11735810_at) / RFU PRB3 (11715151_x_at) / Fold change /veh PRB3 (11715151_x_at) / RFU TUBB4B (11761932_at) / Fold change /veh TUBB4B (11761932_at) / RFU CAPN14 (11732068_a_at) / Fold change /veh CAPN14 (11732068_a_at) / RFU TMCC2 (11721928_a_at) / Fold change /veh TMCC2 (11721928_a_at) / RFU IRGQ (11745062_a_at) / Fold change /veh IRGQ (11745062_a_at) / RFU FAM174B (11720279_a_at) / Fold change /veh FAM174B (11720279_a_at) / RFU TMPRSS4 (11748680_a_at) / Fold change /veh TMPRSS4 (11748680_a_at) / RFU FAM212B (11763350_a_at) / Fold change /veh FAM212B (11763350_a_at) / RFU PLEKHG5 (11743358_a_at) / Fold change /veh PLEKHG5 (11743358_a_at) / RFU ZSCAN30 (11745921_a_at) / Fold change /veh ZSCAN30 (11745921_a_at) / RFU CMKLR1 (11741424_a_at) / Fold change /veh CMKLR1 (11741424_a_at) / RFU LOC101060620 /// MAPK8IP1 (11723275_at) / Fold change /veh LOC101060620 /// MAPK8IP1 (11723275_at) / RFU SPTSSB (11747773_x_at) / Fold change /veh SPTSSB (11747773_x_at) / RFU PRSS12 (11739890_at) / Fold change /veh PRSS12 (11739890_at) / RFU BIN1 (11741810_x_at) / Fold change /veh BIN1 (11741810_x_at) / RFU WNT11 (11732464_a_at) / Fold change /veh WNT11 (11732464_a_at) / RFU C10orf10 (11716521_a_at) / Fold change /veh C10orf10 (11716521_a_at) / RFU C5orf56 (11738089_at) / Fold change /veh C5orf56 (11738089_at) / RFU CYB561 (11721691_x_at) / Fold change /veh CYB561 (11721691_x_at) / RFU ANKRD19P (11752326_a_at) / Fold change /veh ANKRD19P (11752326_a_at) / RFU OR2T12 /// OR2T33 /// OR2T8 (11738714_s_at) / Fold change /veh OR2T12 /// OR2T33 /// OR2T8 (11738714_s_at) / RFU VCAN (11748164_a_at) / Fold change /veh VCAN (11748164_a_at) / RFU JSRP1 (11732532_at) / Fold change /veh JSRP1 (11732532_at) / RFU KRTAP10-11 (11738290_x_at) / Fold change /veh KRTAP10-11 (11738290_x_at) / RFU MYO3A (11730013_a_at) / Fold change /veh MYO3A (11730013_a_at) / RFU EBF3 (11725865_a_at) / Fold change /veh EBF3 (11725865_a_at) / RFU CAMK2N1 (11719241_x_at) / Fold change /veh CAMK2N1 (11719241_x_at) / RFU C5orf56 (11738088_a_at) / Fold change /veh C5orf56 (11738088_a_at) / RFU OLFML3 (11715873_a_at) / Fold change /veh OLFML3 (11715873_a_at) / RFU LOC100653217 /// NTM (11731650_a_at) / Fold change /veh LOC100653217 /// NTM (11731650_a_at) / RFU MAPK11 (11762145_a_at) / Fold change /veh MAPK11 (11762145_a_at) / RFU FIZ1 (11724087_x_at) / Fold change /veh FIZ1 (11724087_x_at) / RFU OASL (11726364_x_at) / Fold change /veh OASL (11726364_x_at) / RFU SOX15 (11748057_x_at) / Fold change /veh SOX15 (11748057_x_at) / RFU CD79A (11719716_a_at) / Fold change /veh CD79A (11719716_a_at) / RFU HIST1H1D (11736915_at) / Fold change /veh HIST1H1D (11736915_at) / RFU CASKIN2 (11723855_a_at) / Fold change /veh CASKIN2 (11723855_a_at) / RFU LOC730098 (11760151_x_at) / Fold change /veh LOC730098 (11760151_x_at) / RFU OR4N2 (11742367_at) / Fold change /veh OR4N2 (11742367_at) / RFU PRRT2 (11749266_a_at) / Fold change /veh PRRT2 (11749266_a_at) / RFU SNX32 (11753110_a_at) / Fold change /veh SNX32 (11753110_a_at) / RFU CDHR5 (11726645_a_at) / Fold change /veh CDHR5 (11726645_a_at) / RFU RCAN1 (11760418_a_at) / Fold change /veh RCAN1 (11760418_a_at) / RFU FAM167A (11723789_a_at) / Fold change /veh FAM167A (11723789_a_at) / RFU FAM26E (11764081_at) / Fold change /veh FAM26E (11764081_at) / RFU ISYNA1 (11749810_s_at) / Fold change /veh ISYNA1 (11749810_s_at) / RFU ACY1 (11761880_at) / Fold change /veh ACY1 (11761880_at) / RFU 11764098_at / Fold change /veh 11764098_at / RFU SAMD14 (11745864_x_at) / Fold change /veh SAMD14 (11745864_x_at) / RFU NPB (11741838_a_at) / Fold change /veh NPB (11741838_a_at) / RFU TMPRSS6 (11731388_a_at) / Fold change /veh TMPRSS6 (11731388_a_at) / RFU KRTAP10-2 (11738614_at) / Fold change /veh KRTAP10-2 (11738614_at) / RFU ARHGAP8 /// PRR5-ARHGAP8 (11727945_x_at) / Fold change /veh ARHGAP8 /// PRR5-ARHGAP8 (11727945_x_at) / RFU KRTAP5-7 /// NADSYN1 (11734609_at) / Fold change /veh KRTAP5-7 /// NADSYN1 (11734609_at) / RFU RASL12 (11751679_a_at) / Fold change /veh RASL12 (11751679_a_at) / RFU CDKN2B (11736163_a_at) / Fold change /veh CDKN2B (11736163_a_at) / RFU PRF1 (11729649_at) / Fold change /veh PRF1 (11729649_at) / RFU, ZNF638 /// ZNF638-IT1 / Fold change vs veh, ZNF638 /// ZNF638-IT1 / RFU, PANK3 / Fold change vs veh, PANK3 / RFU, SH3YL1 / Fold change vs veh, SH3YL1 / RFU, ZEB2 / Fold change vs veh, ZEB2 / RFU, NRIP1 / Fold change vs veh, NRIP1 / RFU, PTTG1IP / Fold change vs veh, PTTG1IP / RFU, CAPN2 / Fold change vs veh, CAPN2 / RFU, MED14 / Fold change vs veh, MED14 / RFU, SNORA58 / Fold change vs veh, SNORA58 / RFU, C1orf63 / Fold change vs veh, C1orf63 / RFU, LRRFIP1 / Fold change vs veh, LRRFIP1 / RFU, NDUFAF7 / Fold change vs veh, NDUFAF7 / RFU, SLC12A2 / Fold change vs veh, SLC12A2 / RFU, IBTK / Fold change vs veh, IBTK / RFU, ESF1 / Fold change vs veh, ESF1 / Fold change vs veh, TMEM50B / RFU, TAOK1 / Fold change vs veh, TAOK1 / RFU, ACBD3 / Fold change vs veh, ACBD3 / RFU, TMA16 / Fold change vs veh, TMA16 / RFU, RWDD3 / Fold change vs veh, RWDD3 / RFU, BCAT1 / Fold change vs veh, BCAT1 / RFU, EDEM3 / Fold change vs veh, EDEM3 / RFU, TMEM33 / Fold change vs veh, TMEM33 / RFU, WDR75 / Fold change vs veh, WDR75 / RFU, AHCTF1 / Fold change vs veh, AHCTF1 / RFU, TFRC / Fold change vs veh, TFRC / RFU, ZDHHC17 / Fold change vs veh, ZDHHC17 / RFU, NOM1 / Fold change vs veh, NOM1 / RFU, ARL8B / Fold change vs veh, ARL8B / RFU, ZBTB11 / Fold change vs veh, ZBTB11 / RFU, TAMM41 / Fold change vs veh, TAMM41 / RFU, KIAA1704 /// LOC100996395 / Fold change vs veh, KIAA1704 /// LOC100996395 / RFU, ING1 / Fold change vs veh, ING1 / RFU, TRMT61B / Fold change vs veh, TRMT61B / RFU, FUBP3 / Fold change vs veh, FUBP3 / RFU, TP53 / Fold change vs veh, TP53 / RFU, TNKS2 / Fold change vs veh, TNKS2 / RFU, ZFP14 / Fold change vs veh, ZFP14 / RFU, ACTR2 / Fold change vs veh, ACTR2 / RFU, PPP3R1 / Fold change vs veh, PPP3R1 / RFU, PIK3R1 / Fold change vs veh, PIK3R1 / RFU, HNRNPA1 / Fold change vs veh, HNRNPA1 / RFU, RNF170 / Fold change vs veh, RNF170 / RFU, ZNF28 / Fold change vs veh, ZNF28 / RFU, RNGTT / Fold change vs veh, RNGTT / RFU, OGT / Fold change vs veh, OGT / RFU, BRD1 / Fold change vs veh, BRD1 / RFU, MARS / Fold change vs veh, MARS / RFU, ZNF655 / Fold change vs veh, ZNF655 / RFU, FAHD1 / Fold change vs veh, FAHD1 / RFU, BDP1 / Fold change vs veh, BDP1 / RFU, LRRCC1 / Fold change vs veh, LRRCC1 / RFU, ARID1A / Fold change vs veh, ARID1A / RFU, ZNF146 / Fold change vs veh, ZNF146 / RFU, ZNF330 / Fold change vs veh, ZNF330 / RFU, GPN3 / Fold change vs veh, GPN3 / RFU, C9orf123 / Fold change vs veh, C9orf123 / RFU, N4BP2L2 / Fold change vs veh, N4BP2L2 / RFU, ARFIP1 / Fold change vs veh, ARFIP1 / RFU, FAM179B / Fold change vs veh, FAM179B / RFU, BCL10 / Fold change vs veh, BCL10 / RFU, UHRF1BP1L / Fold change vs veh, UHRF1BP1L / RFU, BET1 / Fold change vs veh, BET1 / RFU, CNOT2 / Fold change vs veh, CNOT2 / RFU, ZNF268 / Fold change vs veh, ZNF268 / Fold change vs veh, ZNF507 / RFU, DGCR2 / Fold change vs veh, DGCR2 / RFU, WDSUB1 / Fold change vs veh, WDSUB1 / Fold change vs veh, HSP90B1 /// MIR3652 / RFU, ADSS / Fold change vs veh, ADSS / RFU, GK / Fold change vs veh, GK / RFU, ZNF148 / Fold change vs veh, ZNF148 / RFU, TAF9 / Fold change vs veh, TAF9 / RFU, SLC1A5 / Fold change vs veh, SLC1A5 / RFU, SLMO2 / Fold change vs veh, SLMO2 / RFU, ABCC4 / Fold change vs veh, ABCC4 / RFU, LOC101060439 /// RAP1B / Fold change vs veh, LOC101060439 /// RAP1B / RFU, RFX7 / Fold change vs veh, RFX7 / RFU, GTPBP10 / Fold change vs veh, GTPBP10 / RFU, CNEP1R1 / Fold change vs veh, CNEP1R1 / RFU, BIVM-ERCC5 /// ERCC5 / Fold change vs veh, BIVM-ERCC5 /// ERCC5 / RFU, ILF3 / Fold change vs veh, ILF3 / RFU 11762660_at / Fold change /veh 11762660_at / RFU VCAN (11757783_s_at) / Fold change /veh VCAN (11757783_s_at) / RFU DDX43 (11728927_at) / Fold change /veh DDX43 (11728927_at) / RFU KRT8 (11758188_x_at) / Fold change /veh KRT8 (11758188_x_at) / RFU NKD1 (11759106_at) / Fold change /veh NKD1 (11759106_at) / RFU SRD5A1 (11742802_a_at) / Fold change /veh SRD5A1 (11742802_a_at) / RFU TPSAB1 /// TPSB2 (11721975_s_at) / Fold change /veh TPSAB1 /// TPSB2 (11721975_s_at) / RFU GSTM3 (11746129_a_at) / Fold change /veh GSTM3 (11746129_a_at) / RFU IL23R (11737362_x_at) / Fold change /veh IL23R (11737362_x_at) / RFU TMEM51 (11727254_a_at) / Fold change /veh TMEM51 (11727254_a_at) / RFU PIWIL2 (11732686_x_at) / Fold change /veh PIWIL2 (11732686_x_at) / RFU ORM1 (11744905_x_at) / Fold change /veh ORM1 (11744905_x_at) / RFU CCDC152 (11743942_at) / Fold change /veh CCDC152 (11743942_at) / RFU ECM1 (11717891_a_at) / Fold change /veh ECM1 (11717891_a_at) / RFU IL23R (11748794_a_at) / Fold change /veh IL23R (11748794_a_at) / RFU TNFAIP8L3 (11732012_x_at) / Fold change /veh TNFAIP8L3 (11732012_x_at) / RFU MBOAT4 (11741988_at) / Fold change /veh MBOAT4 (11741988_at) / RFU 11764193_at / Fold change /veh 11764193_at / RFU TMEM53 (11763286_at) / Fold change /veh TMEM53 (11763286_at) / RFU MAGEB2 (11727129_at) / Fold change /veh MAGEB2 (11727129_at) / RFU TMEM200A (11744735_a_at) / Fold change /veh TMEM200A (11744735_a_at) / RFU CCDC152 (11751479_a_at) / Fold change /veh CCDC152 (11751479_a_at) / RFU FAM211A (11726209_a_at) / Fold change /veh FAM211A (11726209_a_at) / RFU RGS16 (11746705_a_at) / Fold change /veh RGS16 (11746705_a_at) / RFU VCAN (11755009_s_at) / Fold change /veh VCAN (11755009_s_at) / RFU RHOB (11743442_s_at) / Fold change /veh RHOB (11743442_s_at) / RFU RGS16 (11720943_a_at) / Fold change /veh RGS16 (11720943_a_at) / RFU RGS16 (11720944_at) / Fold change /veh RGS16 (11720944_at) / RFU, VPS4B / Fold change vs veh, VPS4B / RFU, CREB1 / Fold change vs veh, CREB1 / RFU, DNAJC13 / Fold change vs veh, DNAJC13 / RFU, GNAQ / Fold change vs veh, GNAQ / RFU, CDK5R1 / Fold change vs veh, CDK5R1 / RFU, ZRANB3 / Fold change vs veh, ZRANB3 / RFU, CUL4A / Fold change vs veh, CUL4A / RFU, CCNY / Fold change vs veh, CCNY / RFU, UFL1 / Fold change vs veh, UFL1 / RFU, COG3 / Fold change vs veh, COG3 / RFU, DIAPH2 / Fold change vs veh, DIAPH2 / RFU, SKA2 / Fold change vs veh, SKA2 / RFU, AFF3 / Fold change vs veh, AFF3 / RFU, LMF1 / Fold change vs veh, LMF1 / RFU, IPO11 / Fold change vs veh, IPO11 / RFU, DFFB / Fold change vs veh, DFFB / RFU, FOXP1 / Fold change vs veh, FOXP1 / RFU, CARD8 / Fold change vs veh, CARD8 / RFU, STRN3 / Fold change vs veh, STRN3 / RFU, ADK / Fold change vs veh, ADK / RFU, RASSF2 / Fold change vs veh, RASSF2 / RFU, WIPF1 / Fold change vs veh, WIPF1 / RFU, LARP1B / Fold change vs veh, LARP1B / RFU, RASA1 / Fold change vs veh, RASA1 / RFU, RB1 / Fold change vs veh, RB1 / RFU, PPFIA1 / Fold change vs veh, PPFIA1 / RFU, MAT2A / Fold change vs veh, MAT2A / RFU, CCT5 / Fold change vs veh, CCT5 / RFU, WDR92 / Fold change vs veh, WDR92 / RFU, CUX1 / Fold change vs veh, CUX1 / RFU, TTC7A / Fold change vs veh, TTC7A / RFU, TMEM135 / Fold change vs veh, TMEM135 / RFU, DEPTOR / Fold change vs veh, DEPTOR / RFU, CPM / Fold change vs veh, CPM / RFU, DNAJB6 / Fold change vs veh, DNAJB6 / RFU, CACNA2D3 / Fold change vs veh, CACNA2D3 / RFU, DTX4 / Fold change vs veh, DTX4 / RFU, TFCP2 / Fold change vs veh, TFCP2 / RFU, GMCL1 /// GMCL1P1 / Fold change vs veh, GMCL1 /// GMCL1P1 / RFU, AEBP2 / Fold change vs veh, AEBP2 / RFU, SNHG1 /// SNORD22 /// SNORD25 /// SNORD26 /// SNORD27 /// SNORD28 /// SNORD29 /// SNORD31 / Fold change vs veh, SNHG1 /// SNORD22 /// SNORD25 /// SNORD26 /// SNORD27 /// SNORD28 /// SNORD29 /// SNORD31 / Fold change (Aza/veh), C12orf56 (ProbeSet 11735607_a_at) / Fold change (ACY-1035/veh), C12orf56 (ProbeSet 11735607_a_at) / Fold change (Aza/veh), FGFR1OP (ProbeSet 11751329_s_at) / Fold change (ACY-1035/veh), FGFR1OP (ProbeSet 11751329_s_at) / Fold change (Aza/veh), VPS36 (ProbeSet 11739960_a_at) / Fold change (ACY-1035/veh), VPS36 (ProbeSet 11739960_a_at) / RFU SYPL1 (11715823_x_at) / Fold change /veh SYPL1 (11715823_x_at) / RFU IGFBP7 (11715501_s_at) / Fold change /veh IGFBP7 (11715501_s_at) / RFU REEP3 (11722064_at) / Fold change /veh REEP3 (11722064_at) / RFU IGLL1 (11728026_x_at) / Fold change /veh IGLL1 (11728026_x_at): dose or concentration left out as unconfirmed
Conditions: ProbeSet 11740528_a_at; LIST D

Which “Fold change vs veh, AFF3” value does the source give for Nc1ccc(-c2cccs2)cc1NC(=O)c1ccc2c(c1)cc(C1CC1)n2CCN1CCOCC1 [ACY-1035] here?
The value was 0.95.
